Values of other authors in patent US9801827B2, “Dosage forms for administering combinations of drugs” (Pozen Inc., priority 2006, dated 2017).

Conditions: pharmacokinetic half-life, given as examples of long acting NSAIDs

CCc1cccc2c3c([nH]c12)C(CC)(CC(=O)O)OCC3 (stereo not drawn) [etodolac]
half-life: about 7 hours

CC(C(=O)O)c1ccc(-c2ccccc2)c(F)c1 (stereo not drawn) [flurbiprofen]
half-life: about 6 hours

O=C(c1ccccc1)c1ccc2n1CCC2C(=O)O (stereo not drawn) [ketorolac]
half-life: 8 to 9 h

Cc1cccc(Nc2ccccc2C(=O)O)c1C [mefenamic acid]
half-life: up to 4 hours

COc1ccc2cc(CCC(C)=O)ccc2c1 [nabumetone]
half-life: 22 to 30 h

O=C(O)CCc1nc(-c2ccccc2)c(-c2ccccc2)o1 [oxaprozin]
half-life: 42 to 50 h
